Test results from ChEMBL document CHEMBL6121007, “Design, synthesis and evaluation of pyrimidine derivatives as sedative-hypnotic agents” (Eur J Med Chem, 2025).
The source made the active and inactive calls. The calls are words filed in the database; no cut-off is given here.

Tests used:
Mus musculus [1] = test: Upregulation of serotonergic synapse related genes in hypothalamus of mouse at 2.5 mg/kg, ip measured after 30 mins by KEGG enrichment analysis relative to control; assay type: functional; settings: 0.5 h
Mus musculus [2] = test: Upregulation of glycine metabolism related genes in hypothalamus of mouse at 2.5 mg/kg, ip measured after 30 mins by KEGG enrichment analysis relative to control; assay type: functional; settings: 0.5 h
[3] = Drug concentration in male mouse brain at 10 mg/kg, ip measured after 4 hrs by LC-MS/MS analysis; assay type: ADME, organism-based; settings: read-out: Ct
[4] = Cmax in male Sprague-Dawley rat at 2.5 mg/kg, ip measured after 5 to 1440 mins by LC-MS/MS analysis; assay type: ADME, organism-based; settings: in vivo, time 5-1440 min
Mus musculus [5] = test: Upregulation of arachidonic acid metabolism related genes in hypothalamus of mouse at 2.5 mg/kg, ip measured after 30 mins by KEGG enrichment analysis relative to control; assay type: functional; settings: 0.5 h
[6] = Drug concentration in male mouse plasma at 10 mg/kg, ip measured after 4 hrs by LC-MS/MS analysis; assay type: ADME, organism-based
Mus musculus [7] = test: Upregulation of serine metabolism related genes in hypothalamus of mouse at 2.5 mg/kg, ip measured after 30 mins by KEGG enrichment analysis relative to control; assay type: functional; settings: 0.5 h
[8] = Upregulation of cytokine-cytokine receptor interaction related genes in hypothalamus of mouse at 2.5 mg/kg, ip measured after 30 mins by KEGG enrichment analysis relative to control; assay type: functional; settings: 0.5 h
[9] = Upregulation of focal adhesion related genes in hypothalamus of mouse at 2.5 mg/kg, ip measured after 30 mins by KEGG enrichment analysis relative to control; assay type: functional; settings: 0.5 h
Mus musculus [10] = test: Sedative-hypnotic activity in pentobarbital-induced mouse assessed as decrease in sleep latency at 0.2 to 5 mg/kg, ip; assay type: functional, organism-based; settings: dose 0.2-5 mg/kg
[11] = Apparent volume of distribution in male Sprague-Dawley rat at 0.5 mg/kg, iv measured after 2 to 720 mins by LC-MS/MS analysis; assay type: ADME, organism-based; settings: in vivo, time 2-720 min, read-out: Vd(app)
Mus musculus [12] = test: Upregulation of purine metabolism related genes in hypothalamus of mouse at 2.5 mg/kg, ip measured after 30 mins by KEGG enrichment analysis relative to control; assay type: functional; settings: 0.5 h
Mus musculus [13] = test: Sedative-hypnotic activity in mouse assessed as latency time of first step out of center square at 50 mg/kg, ip administrated as single dose and measured after 30 mins by open field test; assay type: functional, organism-based
[14] = AUC (0 to infinity) in male Sprague-Dawley rat at 2.5 mg/kg, ip measured after 5 to 1440 mins by LC-MS/MS analysis; assay type: ADME, organism-based; settings: in vivo, time 5-1440 min
[15] = Upregulation of mTOR signaling pathway related genes in hypothalamus of mouse at 2.5 mg/kg, ip measured after 30 mins by KEGG enrichment analysis relative to control; assay type: functional; settings: 0.5 h
[16] = Half life in male Sprague-Dawley rat at 2.5 mg/kg, ip measured after 5 to 1440 mins by LC-MS/MS analysis; assay type: ADME, organism-based; settings: in vivo, time 5-1440 min
Mus musculus [17] = test: Upregulation of lipid and atherosclerosis related genes in hypothalamus of mouse at 2.5 mg/kg, ip measured after 30 mins by KEGG enrichment analysis relative to control; assay type: functional; settings: 0.5 h
Mus musculus [18] = test: Upregulation of linoleic acid metabolism related genes in hypothalamus of mouse at 2.5 mg/kg, ip measured after 30 mins by KEGG enrichment analysis relative to control; assay type: functional; settings: 0.5 h
[19] = Ratio of drug concentration in male mouse brain to plasma at 10 mg/kg, ip measured after 1 hrs by LC-MS/MS analysis; assay type: ADME, organism-based; settings: brain and plasma, read-out: BPR
Mus musculus [20] = test: Upregulation of apoptosis related genes in hypothalamus of mouse at 2.5 mg/kg, ip measured after 30 mins by KEGG enrichment analysis relative to control; assay type: functional; settings: 0.5 h
[21] = Drug concentration in male mouse plasma at 10 mg/kg, ip measured after 2 hrs by LC-MS/MS analysis; assay type: ADME, organism-based
[22] = Upregulation of proteoglycans in cancer related genes in hypothalamus of mouse at 2.5 mg/kg, ip measured after 30 mins by KEGG enrichment analysis relative to control; assay type: functional; settings: 0.5 h
Mus musculus [23] = test: Upregulation of signaling pathways regulating pluripotent stem cells related genes in hypothalamus of mouse at 2.5 mg/kg, ip measured after 30 mins by KEGG enrichment analysis relative to control; assay type: functional; settings: 0.5 h
[24] = AUC (0 to t) in male Sprague-Dawley rat at 0.5 mg/kg, iv measured after 2 to 720 mins by LC-MS/MS analysis; assay type: ADME, organism-based; settings: in vivo, time 2-720 min
Mus musculus [25] = test: Upregulation of ubiquitin mediated proteolysis related genes in hypothalamus of mouse at 2.5 mg/kg, ip measured after 30 mins by KEGG enrichment analysis relative to control; assay type: functional; settings: 0.5 h
Mus musculus [26] = test: Upregulation of glycerolipid metabolism related genes in hypothalamus of mouse at 2.5 mg/kg, ip measured after 30 mins by KEGG enrichment analysis relative to control; assay type: functional; settings: 0.5 h
Mus musculus [27] = test: Upregulation of neurodegeneration-multiple diseases pathways related genes in hypothalamus of mouse at 2.5 mg/kg, ip measured after 30 mins by KEGG enrichment analysis relative to control; assay type: functional; settings: 0.5 h
[28] = Upregulation of cushing syndrome related genes in hypothalamus of mouse at 2.5 mg/kg, ip measured after 30 mins by KEGG enrichment analysis relative to control; assay type: functional; settings: 0.5 h
[29] = Drug concentration in male mouse plasma at 10 mg/kg, ip measured after 1 hrs by LC-MS/MS analysis; assay type: ADME, organism-based
[30] = Upregulation of Wnt signaling pathway related genes in hypothalamus of mouse at 2.5 mg/kg, ip measured after 30 mins by KEGG enrichment analysis relative to control; assay type: functional; settings: 0.5 h
[31] = Bioavailability in male Sprague-Dawley rat at 2.5 mg/kg, ip measured after 5 to 1440 mins by LC-MS/MS analysis; assay type: ADME, organism-based; settings: in vivo, time 5-1440 min
[32] = MRT (0 to infinity) in male Sprague-Dawley rat at 0.5 mg/kg, iv measured after 2 to 720 mins by LC-MS/MS analysis; assay type: ADME, organism-based; settings: in vivo, time 2-720 min
[33] = AUC (0 to infinity) in male Sprague-Dawley rat at 0.5 mg/kg, iv measured after 2 to 720 mins by LC-MS/MS analysis; assay type: ADME, organism-based; settings: in vivo, time 2-720 min
[34] = Apparent volume of distribution in male Sprague-Dawley rat at 2.5 mg/kg, ip measured after 5 to 1440 mins by LC-MS/MS analysis; assay type: ADME, organism-based; settings: in vivo, time 5-1440 min
[35] = Cmax in male Sprague-Dawley rat at 0.5 mg/kg, iv measured after 2 to 720 mins by LC-MS/MS analysis; assay type: ADME, organism-based; settings: in vivo, time 2-720 min
Mus musculus [36] = test: Upregulation of circadian entrainment related genes in hypothalamus of mouse at 2.5 mg/kg, ip measured after 30 mins by KEGG enrichment analysis relative to control; assay type: functional; settings: 0.5 h
Mus musculus [37] = test: Upregulation of pancreatic secretion related genes in hypothalamus of mouse at 2.5 mg/kg, ip measured after 30 mins by KEGG enrichment analysis relative to control; assay type: functional; settings: 0.5 h
Mus musculus [38] = test: Upregulation of gap junction related genes in hypothalamus of mouse at 2.5 mg/kg, ip measured after 30 mins by KEGG enrichment analysis relative to control; assay type: functional; settings: 0.5 h

SMILES: CCn1c2ccccc2c2cc(Nc3ccnc(Nc4ccc(C)c(OC)c4)n3)ccc21
- Activity (Mus musculus [1]): 4.05%
- Activity (Mus musculus [2]): 1.73%
- concentration at 4 h [3]: 20.2 ng/mL
- Cmax [4]: 281 ng/mL
- Activity (Mus musculus [5]): 2.89%
- concentration at 4 h [6]: 64.7 ng/mL
- Activity (Mus musculus [7]): 1.73%
- Activity [8]: 8.09%
- Activity [9]: 2.89%
- Activity (Mus musculus [10]): Active
- Vd [11]: 2.9 L/kg
- Activity (Mus musculus [12]): 1.73%
- Activity (Mus musculus [13]): Active; Significant Effect Observed
- AUC(0-inf) [14]: 3300 ng·h/mL
- Activity [15]: 3.47%
- half-life [16]: 4.56 h
- Activity (Mus musculus [17]): 7.51%
- Activity (Mus musculus [18]): 1.73%
- Kp at 1 h [19]: 0.2
- Activity (Mus musculus [20]): 3.47%
- concentration at 2 h [21]: 60.4 ng/mL
- Activity [22]: 5.2%
- Activity (Mus musculus [23]): 2.89%
- AUC(0-t) [24]: 801 ng·h/mL
- Activity (Mus musculus [25]): 1.73%
- Activity (Mus musculus [26]): 2.31%
- Activity (Mus musculus [27]): 5.78%
- Activity [28]: 4.05%
- concentration at 1 h [29]: 75 ng/mL
- Activity [30]: 4.05%
- bioavailability [31]: 74.5%
- MRT inf [32]: 3.47 h
- AUC(0-inf) [33]: 885 ng·h/mL
- Vd(app) [34]: 5.023 L/kg
- Cmax [35]: 893 ng/mL
- Activity (Mus musculus [36]): 3.47%
- Activity (Mus musculus [37]): 4.05%
- Activity (Mus musculus [38]): 2.89%
